Measurements reported in US20240174624A1, “CHIRAL N-(1,3,4-OXADIAZOLE-2-YL)PHENYL CARBOXYLIC ACID AMIDES AND THEIR USE AS HERBICIDES” (Bayer Aktiengesellschaft, priority 2021, published 2024).

Legend:
ALOMY = experiment: Pre-emergence herbicidal action; assay type: in vivo, Alopecurus myosuroides; conditions: for Herbicidal action against ALOMY: 20 g a.i./ha, comparative experiment; for Pre-emergence action against ALOMY: scored after 3 weeks
From the text: (§1) Seeds of monocotyledonous and dicotyledonous weed plants and crop plants are laid out in sandy loam soil in wood-fibre pots and covered with soil. The compounds of the invention, formulated in the form of wettable powders (WP) or as emulsion concentrates (EC), are then applied to the surface of the covering soil in the form of an aqueous suspension or emulsion at a water application rate equivalent to 600 to 800 l/ha, with addition of 0.2% wetting agent. After the treatment, the pots are placed in a greenhouse and kept under good growth conditions for the trial plants. The damage to the test plants is scored visually after a test period of 3 weeks by comparison with untreated controls (herbicidal activity in percent (%): 100% activity=the plants have died, 0% activity=like control plants). […] The tables below illustrate, in an illustrative manner, the post-emergence herbicidal action of the compounds of the invention, the herbicidal activity being stated in percent. In the experiments that follow, the herbicidal action of the compounds of the invention and that of the corresponding known racemic compounds closest from WO2012126932 and WO2018202535 were compared under the above-specified conditions by the pre-emergence and post-emergence method. The example numbers given in the tables relate to the compounds disclosed in the respective documents.

AVEFA = experiment: Pre-emergence herbicidal action; assay type: in vivo, Avena fatua; conditions: for Herbicidal action against AVEFA: 20 g a.i./ha, comparative experiment
From the text: as §1

LOLRI [1] = experiment: Pre-emergence herbicidal action; assay type: in vivo, Lolium rigidum; conditions: for Herbicidal action against LOLRI: 20 g a.i./ha, comparative experiment
From the text: as §1

ZEAMX [2] = experiment: Pre-emergence damage to crop plants; assay type: in vivo, Zea mays; conditions: 80 g a.i./ha, comparative experiment
From the text: as §1

GLXMA = experiment: Pre-emergence damage to crop plants; assay type: in vivo, Glycine max; conditions: comparative experiment
From the text: as §1

DIGSA [3] = experiment: Post-emergence herbicidal action; assay type: in vivo, Digitaria sanguinalis; conditions: for Herbicidal action against DIGSA: 20 g a.i./ha, comparative experiment; for Post-emergence action against DIGSA: assessed after about 3 weeks
Experimental: (§2) Seeds of monocotyledonous and dicotyledonous weed and crop plants are laid out in sandy loam soil in wood-fibre pots, covered with soil and cultivated in a greenhouse under good growth conditions. 2 to 3 weeks after sowing, the test plants are treated at the one-leaf stage. The compounds of the invention, formulated in the form of wettable powders (WP) or as emulsion concentrates (EC), are then sprayed onto the green parts of the plants in the form of an aqueous suspension or emulsion at a water application rate equating to 600 to 800 l/ha, with addition of 0.2% wetting agent. After the test plants have been left to stand in the greenhouse under optimal growth conditions for about 3 weeks, the action of the preparations is assessed visually in comparison to untreated controls (herbicidal action in percent (%): 100% activity=the plants have died, 0% activity=like control plants). […] The tables below illustrate, in an illustrative manner, the post-emergence herbicidal action of the compounds of the invention, the herbicidal activity being stated in percent. In the experiments that follow, the herbicidal action of the compounds of the invention and that of the corresponding known racemic compounds closest from WO2012126932 and WO2018202535 were compared under the above-specified conditions by the pre-emergence and post-emergence method. The example numbers given in the tables relate to the compounds disclosed in the respective documents.

VERPE [4] = experiment: Post-emergence herbicidal action; assay type: in vivo, Veronica persica; conditions: 5 g a.i./ha, comparative experiment
Experimental: as §2

LOLRI [5] = experiment: Post-emergence herbicidal action; assay type: in vivo, Lolium rigidum; conditions: 20 g a.i./ha, comparative experiment
Experimental: as §2, with “The example numbers given in the tables relate to the compounds disclosed in the respective documents.” left out

ZEAMX [6] = experiment: Post-emergence damage to crop plants; assay type: in vivo, Zea mays; conditions: 20 g a.i./ha, comparative experiment
Experimental: as §2

TRZAS = experiment: Post-emergence damage to crop plants; assay type: in vivo, Triticum aestiva; conditions: 20 g a.i./ha, comparative experiment
Experimental: as §2

BRSNW = experiment: Post-emergence damage to crop plants; assay type: in vivo, Brassica napus; conditions: 20 g a.i./ha, comparative experiment
Experimental: as §2, with “The example numbers given in the tables relate to the compounds disclosed in the respective documents.” left out

AMARE [7] = experiment: Pre-emergence herbicidal action; assay type: in vivo, Amaranthus retroflexus; conditions: scored after 3 weeks
From the text: as §1, with “percent.” for “percent. In the experiments that follow, the herbicidal action of the compounds of the invention and that of the corresponding known racemic compounds closest from WO2012126932 and WO2018202535 were compared under the above-specified conditions by the pre-emergence and post-emergence method. The example numbers given in the tables relate to the compounds disclosed in the respective documents.”

DIGSA [8] = experiment: Pre-emergence herbicidal action; assay type: in vivo, Digitaria sanguinalis; conditions: scored after 3 weeks
From the text: as §1, with “percent.” for “percent. In the experiments that follow, the herbicidal action of the compounds of the invention and that of the corresponding known racemic compounds closest from WO2012126932 and WO2018202535 were compared under the above-specified conditions by the pre-emergence and post-emergence method. The example numbers given in the tables relate to the compounds disclosed in the respective documents.”

ECHCG [9] = experiment: Pre-emergence herbicidal action; assay type: in vivo, Echinochloa crus-galli; conditions: 80 g/ha, scored after 3 weeks
From the text: as §1, with “percent.” for “percent. In the experiments that follow, the herbicidal action of the compounds of the invention and that of the corresponding known racemic compounds closest from WO2012126932 and WO2018202535 were compared under the above-specified conditions by the pre-emergence and post-emergence method. The example numbers given in the tables relate to the compounds disclosed in the respective documents.”

MATIN [10] = experiment: Pre-emergence herbicidal action; assay type: in vivo, Matricaria inodora; conditions: scored after 3 weeks
From the text: as §1

POLCO = experiment: Pre-emergence herbicidal action; assay type: in vivo, Polygonum convolvulus; conditions: 80 g/ha, scored after 3 weeks
From the text: as §1

SETVI [11] = experiment: Pre-emergence herbicidal action; assay type: in vivo, Setaria viridis; conditions: scored after 3 weeks
From the text: as §1

VERPE [12] = experiment: Pre-emergence herbicidal action; assay type: in vivo, Veronica persica; conditions: 80 g/ha, scored after 3 weeks
From the text: as §1

VIOTR = experiment: Pre-emergence herbicidal action; assay type: in vivo, Viola tricolor; conditions: scored after 3 weeks
From the text: as §1, with “percent.” for “percent. In the experiments that follow, the herbicidal action of the compounds of the invention and that of the corresponding known racemic compounds closest from WO2012126932 and WO2018202535 were compared under the above-specified conditions by the pre-emergence and post-emergence method. The example numbers given in the tables relate to the compounds disclosed in the respective documents.”

AMARE [13] = experiment: Post-emergence herbicidal action; assay type: in vivo, Amaranthus retroflexus; conditions: assessed after about 3 weeks
Experimental: as §2, with “percent.” for “percent. In the experiments that follow, the herbicidal action of the compounds of the invention and that of the corresponding known racemic compounds closest from WO2012126932 and WO2018202535 were compared under the above-specified conditions by the pre-emergence and post-emergence method. The example numbers given in the tables relate to the compounds disclosed in the respective documents.”

ECHCG [14] = experiment: Post-emergence herbicidal action; assay type: in vivo, Echinochloa crus-galli; conditions: 20 g/ha, assessed after about 3 weeks
Experimental: as §2

MATIN [15] = experiment: Post-emergence herbicidal action; assay type: in vivo, Matricaria inodora; conditions: 20 g/ha, assessed after about 3 weeks
Experimental: as §2, with “percent.” for “percent. In the experiments that follow, the herbicidal action of the compounds of the invention and that of the corresponding known racemic compounds closest from WO2012126932 and WO2018202535 were compared under the above-specified conditions by the pre-emergence and post-emergence method. The example numbers given in the tables relate to the compounds disclosed in the respective documents.”

SETVI [16] = experiment: Post-emergence herbicidal action; assay type: in vivo, Setaria viridis; conditions: assessed after about 3 weeks
Experimental: as §2

For `Cc1nnc(NC(=O)c2ccc(C(F)(F)F)c([S+]([O-])C3CC3)c2Cl)o1` (racemic) [Racemate known from WO2012126932, 2-chloro-N-(5-methyl-1,3,4-oxadiazol-2-yl)-3-[(rac)-cyclopropylsulfinyl]-4-(trifluoromethyl)benzamide, reference compound], the “Herbicidal action against ALOMY” value (ALOMY) was 0%, the “Herbicidal action against AVEFA” value (AVEFA) was 0% and the “Herbicidal action against LOLRI” value (LOLRI [1]) was 0%. For the same compound, the “Damage to ZEAMX” value (ZEAMX [2]) was 70%, the “Damage to GLXMA” value (GLXMA; 20 g a.i./ha) was 60% and the “Damage to GLXMA” value (GLXMA; 80 g a.i./ha) was 100%. For the same compound, the “Herbicidal action against DIGSA” value (DIGSA [3]) was 80%, the “Herbicidal action against VERPE” value (VERPE [4]) was 40% and the “Herbicidal action against LOLRI” value (LOLRI [5]) was 30%. The “Damage to ZEAMX” value (ZEAMX [6]) was 20%, the “Damage to TRZAS” value (TRZAS) was 40% and the “Damage to BRSNW” value (BRSNW) was 100%.

For `Cc1nnc(NC(=O)c2ccc(C(F)(F)F)c([S+]([O-])C3CC3)c2Cl)o1` (stereo in doubt) [Example I-4, 2-chloro-N-(5-methyl-1,3,4-oxadiazol-2-yl)-3-[(S)-cyclopropylsulfinyl]-4-(trifluoromethyl)benzamide], the “Herbicidal action against ALOMY” value (ALOMY) was 80%, the “Pre-emergence action against ALOMY” value (ALOMY; 20 g/ha) was 80% and the “Pre-emergence action against ALOMY” value (ALOMY; 80 g/ha) was 100%. For the same compound, the “Pre-emergence action against AMARE” value (AMARE [7]; 20 g/ha) was 100%, the “Pre-emergence action against AMARE” value (AMARE [7]; 80 g/ha) was 100% and the “Herbicidal action against AVEFA” value (AVEFA) was 30%. For the same compound, the “Pre-emergence action against AVEFA” value (AVEFA; 80 g/ha, scored after 3 weeks) was 90%, the “Pre-emergence action against DIGSA” value (DIGSA [8]; 20 g/ha) was 100% and the “Pre-emergence action against DIGSA” value (DIGSA [8]; 80 g/ha) was 100%. For the same compound, the “Pre-emergence action against ECHCG” value (ECHCG [9]) was 100%, the “Herbicidal action against LOLRI” value (LOLRI [1]) was 50% and the “Pre-emergence action against LOLRI” value (LOLRI [1]; 80 g/ha, scored after 3 weeks) was 80%. The “Pre-emergence action against MATIN” value (MATIN [10]; 20 g/ha) was 80%, the “Pre-emergence action against MATIN” value (MATIN [10]; 80 g/ha) was 100% and the “Pre-emergence action against POLCO” value (POLCO) was 80%. For the same compound, the “Pre-emergence action against SETVI” value (SETVI [11]; 20 g/ha) was 100%, the “Pre-emergence action against SETVI” value (SETVI [11]; 80 g/ha) was 100% and the “Pre-emergence action against VERPE” value (VERPE [12]) was 100%. For the same compound, the “Pre-emergence action against VIOTR” value (VIOTR; 20 g/ha) was 100%, the “Pre-emergence action against VIOTR” value (VIOTR; 80 g/ha) was 100% and the “Damage to ZEAMX” value (ZEAMX [2]) was 50%. The “Damage to GLXMA” value (GLXMA; 20 g a.i./ha) was 40%, the “Damage to GLXMA” value (GLXMA; 80 g a.i./ha) was 80% and the “Post-emergence action against AMARE” value (AMARE [13]; 5 g/ha) was 100%. The “Post-emergence action against AMARE” value (AMARE [13]; 20 g/ha) was 100%, the “Post-emergence action against DIGSA” value (DIGSA [3]; 5 g/ha) was 90% and the “Herbicidal action against DIGSA” value (DIGSA [3]) was 100%. For the same compound, the “Post-emergence action against DIGSA” value (DIGSA [3]; 20 g/ha) was 100%, the “Post-emergence action against ECHCG” value (ECHCG [14]) was 90% and the “Post-emergence action against MATIN” value (MATIN [15]) was 80%. For the same compound, the “Post-emergence action against SETVI” value (SETVI [16]; 5 g/ha) was 100%, the “Post-emergence action against SETVI” value (SETVI [16]; 20 g/ha) was 100% and the “Herbicidal action against VERPE” value (VERPE [4]) was 60%. The “Herbicidal action against LOLRI” value (LOLRI [5]) was 60%, the “Damage to ZEAMX” value (ZEAMX [6]) was 0% and the “Damage to TRZAS” value (TRZAS) was 20%. The “Damage to BRSNW” value (BRSNW) was 80%.
